We go through 6 molecules from patent US20100305074A1, “NIACIN-BASED PHARMACEUTICAL COMPOSITIONS” (priority 2007, published 2010).

Experiment [1] concerns patients with niacin-induced pruritis. Kind of experiment: Treatment of niacin-induced pruritis with an H-1 blocking agent (Example 6). In kind it is in vivo, human. Particulars: among the seven successful patients; morning dosing (cetrizine, fexofenadine) or evening dosing (diphenhydramine). The method, then: Nine patients with niacin-induced pruritis were treated by recommending an H-1 blocking agent.

The test system of experiment [2] is patients who developed hyperuricemia while on niacin therapy. Kind of experiment: Hyperuricemia on niacin therapy controlled with allopurinol (Example 7). Particulars: daily dosing 25 to 200 mg to control hyperuricemia.
Method: Two females and 15 males were given allopurinol to control the hyperuricemia (daily dosing ranged from 25 to 200 mg).
The subject of experiment [3] is patients with debilitating flushing on sustained-release niacin therapy. The experiment can be described thus: Prevention of flushing in patients on sustained-release niacin therapy (Examples 1 and 3). In kind it is in vivo, human. Particulars: thirteen patients initiating sustained-release niacin; Aspirin 81 mg for prevention of flushing.
Experiment [4] deals with men with low HDL and coronary artery disease. Conditions: in combination with other lipid medications; HATS trial, N Engl J Med 345:1583-1592; cited from earlier work.

Take `CC(C)(C(=O)O)c1ccc(C(O)CCCN2CCC(C(O)(c3ccccc3)c3ccccc3)CC2)cc1` (stereo not drawn) [fexofenadine]: the “effect on niacin-induced pruritis” value in experiment [1] was “resolution of pruritis”.

Turning to `CN(C)CCOC(c1ccccc1)c1ccccc1` [diphenhydramine], the “effect on niacin-induced pruritis” value in experiment [1] is on record as “resolution of pruritis”.

On to `O=C(O)COCCN1CCN(C(c2ccccc2)c2ccc(Cl)cc2)CC1` (stereo not drawn) [cetrizine], for which the “effect on niacin-induced pruritis” value in experiment [1] was “resolution of pruritis”.

As to `Oc1ncnc2[nH]ncc12` [allopurinol], the “continuation of niacin therapy” value in experiment [2] was “All were able to continue niacin therapy”.

As for `CC(=O)Oc1ccccc1C(=O)O` [Aspirin], the flushing despite prevention entry in experiment [3] is listed as “continued to have debilitating flushing”.

For the molecule `O=C(O)c1cccnc1` [niacin, 3-pyridinecarboxylic acid], the “lowering of the incidence of cardiovascular events (heart attacks, strokes, and sudden death)” value in experiment [4] is recorded as 60-90%.
